Holding throughout (design): scale not given: the % may be the effect or the level left
For assay [1], the target named is Dual specificity protein kinase CLK2 (Homo sapiens) (UniProt P49760). As to the kind of experiment: Inhibition of human CLK2 assessed as enzyme activity at 1 uM using myelin basic protein as substrate preincubated for 20 mins followed by [gamma-33P]-ATP addition and measured after 120 mins by radiometric Hot-SpotSM Kinase assay relative to control.
The target in assay [2] is Tyrosine-protein kinase JAK2 (Homo sapiens) (UniProt O60674). As to the kind of experiment: Inhibition of human JAK2 assessed as enzyme activity at 1 uM using poly[Glu:Tyr] (4:1) as substrate preincubated for 20 mins followed by [gamma-33P]-ATP addition and measured after 120 mins by radiometric Hot-SpotSM Kinase assay relative to control.
The target of assay [3] is Mitogen-activated protein kinase kinase kinase kinase 1 (Homo sapiens) (UniProt Q92918). As to the kind of experiment: Inhibition of human HPK1 assessed as enzyme activity at 1 uM using myelin basic protein as substrate preincubated for 20 mins followed by [gamma-33P]-ATP addition and measured after 120 mins by radiometric Hot-SpotSM Kinase assay relative to control.
Assay [4] concerns the target STE20/SPS1-related proline-alanine-rich protein kinase (Homo sapiens) (UniProt Q9UEW8). As to the kind of experiment: Inhibition of human STK39 assessed as enzyme activity at 1 uM using myelin basic protein as substrate preincubated for 20 mins followed by [gamma-33P]-ATP addition and measured after 120 mins by radiometric Hot-SpotSM Kinase assay relative to control.

The target in assay [5] is Serine/threonine-protein kinase WNK1 (Homo sapiens) (UniProt Q9H4A3). Briefly: Inhibition of human WNK1 assessed as enzyme activity at 1 uM using myelin basic protein as substrate preincubated for 20 mins followed by [gamma-33P]-ATP addition and measured after 120 mins by radiometric Hot-SpotSM Kinase assay relative to control.
Assay [6] addresses Serine/threonine-protein kinase SIK2 (Homo sapiens) (UniProt Q9H0K1). As to the kind of experiment: Inhibition of human SIK2 assessed as enzyme activity at 1 uM using AMARAASAAALARRR as substrate preincubated for 20 mins followed by [gamma-33P]-ATP addition and measured after 120 mins by radiometric Hot-SpotSM Kinase assay relative to control.
Assay [7] concerns the target Mitogen-activated protein kinase 11 (Homo sapiens) (UniProt Q15759). As to the kind of experiment: Inhibition of human P38b assessed as enzyme activity at 1 uM using myelin basic protein as substrate preincubated for 20 mins followed by [gamma-33P]-ATP addition and measured after 120 mins by radiometric Hot-SpotSM Kinase assay relative to control.
In assay [8] the target is Ribosomal protein S6 kinase beta-1 (Homo sapiens) (UniProt P23443). As to the kind of experiment: Inhibition of human p70S6K assessed as enzyme activity at 1 uM using KKRNRTLTK as substrate preincubated for 20 mins followed by [gamma-33P]-ATP addition and measured after 120 mins by radiometric Hot-SpotSM Kinase assay relative to control.
The target of assay [9] is Calcium/calmodulin-dependent protein kinase type II subunit gamma (Homo sapiens) (UniProt Q13555). Briefly: Inhibition of human CAMK2g assessed as enzyme activity at 1 uM using KKLNRTLSFAEPG as substrate preincubated for 20 mins followed by [gamma-33P]-ATP addition and measured after 120 mins by radiometric Hot-SpotSM Kinase assay relative to control.
The target of assay [10] is Epithelial discoidin domain-containing receptor 1 (Homo sapiens) (UniProt Q08345). As to the kind of experiment: Inhibition of human DDR1 assessed as enzyme activity at 1 uM using KKSRGDYMTMQIG as substrate preincubated for 20 mins followed by [gamma-33P]-ATP addition and measured after 120 mins by radiometric Hot-SpotSM Kinase assay relative to control.
For assay [11], the target named is T1, Dual specificity mitogen-activated protein kinase kinase 6 (Homo sapiens) (UniProt P52564).
T1 sequence (whole entry): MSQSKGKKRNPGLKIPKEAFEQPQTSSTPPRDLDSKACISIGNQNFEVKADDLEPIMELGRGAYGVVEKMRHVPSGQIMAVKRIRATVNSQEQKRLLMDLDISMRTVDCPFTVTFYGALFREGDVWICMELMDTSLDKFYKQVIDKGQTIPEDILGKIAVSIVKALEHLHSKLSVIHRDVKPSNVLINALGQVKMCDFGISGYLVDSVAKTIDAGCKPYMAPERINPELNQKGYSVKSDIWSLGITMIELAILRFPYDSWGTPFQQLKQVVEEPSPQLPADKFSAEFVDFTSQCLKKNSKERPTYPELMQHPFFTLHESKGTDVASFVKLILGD
Briefly: Inhibition of human MKK6 assessed as enzyme activity at 1 uM using p38a (K53A) as substrate preincubated for 20 mins followed by [gamma-33P]-ATP addition and measured after 120 mins by radiometric Hot-SpotSM Kinase assay relative to control.

The target in assay [12] is Mast/stem cell growth factor receptor Kit (Homo sapiens) (UniProt P10721). Briefly: Inhibition of human c-Kit assessed as enzyme activity at 1 uM using poly[Glu:Tyr] (4:1) as substrate preincubated for 20 mins followed by [gamma-33P]-ATP addition and measured after 120 mins by radiometric Hot-SpotSM Kinase assay relative to control.
Assay [13] deals with Bone morphogenetic protein receptor type-1A (Homo sapiens) (UniProt P36894). Briefly: Inhibition of human ALK3 assessed as enzyme activity at 1 uM using casein as substrate preincubated for 20 mins followed by [gamma-33P]-ATP addition and measured after 120 mins by radiometric Hot-SpotSM Kinase assay relative to control.
In assay [14] the target is CDK7/Cyclin H/MNAT1 (Homo sapiens) (UniProt P51946+P50613+P51948). As to the kind of experiment: Inhibition of human CDK7/Cyclin H/MNAT1 assessed as enzyme activity at 1 uM using myelin basic protein as substrate preincubated for 20 mins followed by [gamma-33P]-ATP addition and measured after 120 mins by radiometric Hot-SpotSM Kinase assay relative to control. It is filed as protein-complex assay.

Serine/threonine-protein kinase SIK2 (Homo sapiens), sequence (Q9H0K1 whole entry, looked up): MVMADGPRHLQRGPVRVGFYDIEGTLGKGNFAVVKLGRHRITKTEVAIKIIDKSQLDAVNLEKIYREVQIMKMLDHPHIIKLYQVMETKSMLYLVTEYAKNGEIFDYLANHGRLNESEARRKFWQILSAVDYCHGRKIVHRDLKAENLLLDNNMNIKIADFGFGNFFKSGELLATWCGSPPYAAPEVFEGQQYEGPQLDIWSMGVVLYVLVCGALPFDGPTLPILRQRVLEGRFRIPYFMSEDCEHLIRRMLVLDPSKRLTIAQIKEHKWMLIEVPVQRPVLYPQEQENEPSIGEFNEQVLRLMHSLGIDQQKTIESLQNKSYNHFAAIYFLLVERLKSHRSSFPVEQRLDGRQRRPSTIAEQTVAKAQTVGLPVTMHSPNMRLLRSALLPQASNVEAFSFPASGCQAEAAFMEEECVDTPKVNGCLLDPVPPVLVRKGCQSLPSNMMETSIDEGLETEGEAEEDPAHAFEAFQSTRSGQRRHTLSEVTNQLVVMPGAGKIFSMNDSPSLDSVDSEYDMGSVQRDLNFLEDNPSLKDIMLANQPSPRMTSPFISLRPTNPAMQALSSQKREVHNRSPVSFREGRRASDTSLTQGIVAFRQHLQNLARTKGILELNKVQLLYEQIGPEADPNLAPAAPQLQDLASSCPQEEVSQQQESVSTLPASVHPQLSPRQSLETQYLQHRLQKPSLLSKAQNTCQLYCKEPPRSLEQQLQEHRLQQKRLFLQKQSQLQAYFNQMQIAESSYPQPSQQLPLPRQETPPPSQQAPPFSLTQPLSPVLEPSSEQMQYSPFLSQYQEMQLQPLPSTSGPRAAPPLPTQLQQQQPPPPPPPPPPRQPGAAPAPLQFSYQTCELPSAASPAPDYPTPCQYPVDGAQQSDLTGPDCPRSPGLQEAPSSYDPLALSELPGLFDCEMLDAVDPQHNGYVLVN
Serine/threonine-protein kinase WNK1 (Homo sapiens), sequence (Q9H4A3 whole entry, looked up): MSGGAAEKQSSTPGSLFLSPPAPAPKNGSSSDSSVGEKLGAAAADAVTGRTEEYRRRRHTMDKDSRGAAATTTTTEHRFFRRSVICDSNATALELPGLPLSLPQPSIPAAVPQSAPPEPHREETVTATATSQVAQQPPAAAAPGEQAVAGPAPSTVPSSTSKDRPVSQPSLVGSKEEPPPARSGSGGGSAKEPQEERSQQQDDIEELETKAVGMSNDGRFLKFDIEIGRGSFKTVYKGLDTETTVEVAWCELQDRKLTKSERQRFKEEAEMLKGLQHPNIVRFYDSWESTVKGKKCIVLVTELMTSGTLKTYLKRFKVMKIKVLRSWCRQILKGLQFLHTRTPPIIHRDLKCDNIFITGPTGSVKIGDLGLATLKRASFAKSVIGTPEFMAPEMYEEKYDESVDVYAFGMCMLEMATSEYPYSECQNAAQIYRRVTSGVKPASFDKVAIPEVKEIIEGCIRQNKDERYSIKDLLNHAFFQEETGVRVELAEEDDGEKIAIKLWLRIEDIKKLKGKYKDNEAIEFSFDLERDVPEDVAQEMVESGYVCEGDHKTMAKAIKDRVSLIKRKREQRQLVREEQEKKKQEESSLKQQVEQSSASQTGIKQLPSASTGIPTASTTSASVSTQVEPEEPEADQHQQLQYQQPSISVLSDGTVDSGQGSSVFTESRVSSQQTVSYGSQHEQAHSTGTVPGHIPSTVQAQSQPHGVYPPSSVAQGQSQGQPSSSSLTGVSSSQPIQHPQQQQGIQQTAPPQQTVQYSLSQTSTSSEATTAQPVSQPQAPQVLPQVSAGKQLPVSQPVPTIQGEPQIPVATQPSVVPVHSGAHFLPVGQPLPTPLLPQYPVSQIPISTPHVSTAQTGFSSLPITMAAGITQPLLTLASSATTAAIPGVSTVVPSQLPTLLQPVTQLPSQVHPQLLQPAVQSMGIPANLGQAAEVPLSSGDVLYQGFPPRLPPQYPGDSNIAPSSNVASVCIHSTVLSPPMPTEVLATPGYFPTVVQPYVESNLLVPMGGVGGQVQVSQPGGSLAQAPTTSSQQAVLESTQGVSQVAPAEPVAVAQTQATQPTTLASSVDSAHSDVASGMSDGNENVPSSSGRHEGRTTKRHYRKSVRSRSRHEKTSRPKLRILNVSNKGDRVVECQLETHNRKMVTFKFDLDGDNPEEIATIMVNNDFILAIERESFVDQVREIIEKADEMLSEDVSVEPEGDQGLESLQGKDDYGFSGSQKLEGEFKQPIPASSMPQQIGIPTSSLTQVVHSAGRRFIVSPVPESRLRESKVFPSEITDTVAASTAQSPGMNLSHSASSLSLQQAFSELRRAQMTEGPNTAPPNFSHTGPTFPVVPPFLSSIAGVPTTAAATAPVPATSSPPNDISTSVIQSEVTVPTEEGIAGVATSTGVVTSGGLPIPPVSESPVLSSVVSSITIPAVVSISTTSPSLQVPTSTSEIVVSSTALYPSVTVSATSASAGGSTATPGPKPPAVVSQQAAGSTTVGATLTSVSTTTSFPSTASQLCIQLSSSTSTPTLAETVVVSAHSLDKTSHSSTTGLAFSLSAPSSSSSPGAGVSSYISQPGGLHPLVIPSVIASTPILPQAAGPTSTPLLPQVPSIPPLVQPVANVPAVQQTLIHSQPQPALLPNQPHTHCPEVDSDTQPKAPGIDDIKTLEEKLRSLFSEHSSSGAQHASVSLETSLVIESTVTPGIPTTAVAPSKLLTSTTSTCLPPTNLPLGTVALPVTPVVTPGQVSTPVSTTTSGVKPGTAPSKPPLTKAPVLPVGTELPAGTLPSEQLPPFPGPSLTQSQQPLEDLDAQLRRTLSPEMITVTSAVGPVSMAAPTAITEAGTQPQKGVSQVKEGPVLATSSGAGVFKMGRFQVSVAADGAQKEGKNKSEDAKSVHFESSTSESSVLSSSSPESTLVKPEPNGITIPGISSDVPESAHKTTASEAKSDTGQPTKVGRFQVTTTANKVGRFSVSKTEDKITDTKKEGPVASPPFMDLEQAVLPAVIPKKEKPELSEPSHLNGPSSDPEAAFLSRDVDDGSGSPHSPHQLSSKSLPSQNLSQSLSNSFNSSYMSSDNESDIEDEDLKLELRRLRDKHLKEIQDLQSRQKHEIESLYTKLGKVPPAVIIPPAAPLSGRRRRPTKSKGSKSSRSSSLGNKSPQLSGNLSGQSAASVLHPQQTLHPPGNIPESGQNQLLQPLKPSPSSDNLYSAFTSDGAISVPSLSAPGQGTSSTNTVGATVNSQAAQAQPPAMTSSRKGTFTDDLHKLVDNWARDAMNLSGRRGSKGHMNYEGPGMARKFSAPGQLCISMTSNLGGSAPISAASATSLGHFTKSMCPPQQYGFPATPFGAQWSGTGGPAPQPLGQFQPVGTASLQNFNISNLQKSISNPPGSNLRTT
Mitogen-activated protein kinase 11 (Homo sapiens), sequence (Q15759 whole entry): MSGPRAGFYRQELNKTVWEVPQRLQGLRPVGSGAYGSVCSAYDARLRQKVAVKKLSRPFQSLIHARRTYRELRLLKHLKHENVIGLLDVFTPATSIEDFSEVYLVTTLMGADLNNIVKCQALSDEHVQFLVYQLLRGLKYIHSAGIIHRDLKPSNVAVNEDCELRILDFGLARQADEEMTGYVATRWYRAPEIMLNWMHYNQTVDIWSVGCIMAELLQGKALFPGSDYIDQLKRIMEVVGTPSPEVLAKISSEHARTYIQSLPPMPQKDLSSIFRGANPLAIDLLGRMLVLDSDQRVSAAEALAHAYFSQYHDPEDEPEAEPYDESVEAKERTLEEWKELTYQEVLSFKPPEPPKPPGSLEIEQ
Epithelial discoidin domain-containing receptor 1 (Homo sapiens), sequence (Q08345 whole entry, the tested form may be a part): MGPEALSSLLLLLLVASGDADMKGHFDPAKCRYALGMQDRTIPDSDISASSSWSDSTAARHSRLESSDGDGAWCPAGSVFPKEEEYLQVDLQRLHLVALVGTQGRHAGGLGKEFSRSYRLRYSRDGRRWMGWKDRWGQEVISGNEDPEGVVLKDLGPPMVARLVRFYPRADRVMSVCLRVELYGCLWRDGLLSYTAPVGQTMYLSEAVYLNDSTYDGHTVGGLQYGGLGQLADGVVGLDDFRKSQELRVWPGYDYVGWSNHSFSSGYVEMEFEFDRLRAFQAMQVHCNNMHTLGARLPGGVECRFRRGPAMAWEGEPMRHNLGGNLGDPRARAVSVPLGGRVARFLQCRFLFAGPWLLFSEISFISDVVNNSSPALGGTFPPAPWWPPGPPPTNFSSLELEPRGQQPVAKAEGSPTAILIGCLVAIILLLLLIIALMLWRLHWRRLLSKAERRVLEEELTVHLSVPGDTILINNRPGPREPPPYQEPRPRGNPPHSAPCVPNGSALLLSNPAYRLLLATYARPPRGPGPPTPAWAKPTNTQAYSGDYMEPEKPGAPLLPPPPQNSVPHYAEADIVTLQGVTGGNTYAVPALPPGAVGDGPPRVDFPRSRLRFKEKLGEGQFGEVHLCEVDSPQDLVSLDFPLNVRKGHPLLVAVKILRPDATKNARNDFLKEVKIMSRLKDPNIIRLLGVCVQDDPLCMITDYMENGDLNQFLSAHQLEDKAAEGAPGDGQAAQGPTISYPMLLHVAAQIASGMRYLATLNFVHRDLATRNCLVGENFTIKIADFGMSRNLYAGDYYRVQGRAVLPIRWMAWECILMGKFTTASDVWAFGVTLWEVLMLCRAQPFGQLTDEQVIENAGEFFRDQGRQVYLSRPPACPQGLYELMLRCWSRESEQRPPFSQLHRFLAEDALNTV
Ribosomal protein S6 kinase beta-1 (Homo sapiens), sequence (P23443 whole entry, looked up): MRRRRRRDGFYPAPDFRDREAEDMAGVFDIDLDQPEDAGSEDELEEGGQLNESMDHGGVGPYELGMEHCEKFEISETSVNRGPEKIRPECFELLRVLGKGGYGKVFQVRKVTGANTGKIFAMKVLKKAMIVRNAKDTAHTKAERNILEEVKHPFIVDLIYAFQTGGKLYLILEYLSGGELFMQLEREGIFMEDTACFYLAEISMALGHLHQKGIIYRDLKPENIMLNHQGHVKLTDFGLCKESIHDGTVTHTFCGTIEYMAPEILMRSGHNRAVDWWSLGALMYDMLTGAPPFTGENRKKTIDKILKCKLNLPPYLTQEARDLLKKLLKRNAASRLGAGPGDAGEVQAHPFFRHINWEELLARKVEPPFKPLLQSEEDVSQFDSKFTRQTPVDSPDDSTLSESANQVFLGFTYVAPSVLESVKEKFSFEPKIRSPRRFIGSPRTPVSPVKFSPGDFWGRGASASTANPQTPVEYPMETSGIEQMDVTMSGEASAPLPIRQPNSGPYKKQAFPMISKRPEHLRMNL

As for `C[C@H](Nc1ncnc2nc[nH]c12)c1cc2cccc(Cl)c2c(=O)n1-c1ccccc1`, the Activity in assay [1] is 95.3%; in [2] it was 100%; in assay [3], 104%; in assay [4], 78.1%; in assay [5], 79.4%; in assay [6], 94%. In addition, the Activity in assay [7] stood at 92.6%; in assay [8] it was 97.2%; in assay [9] it was 92.9%; in assay [10] it was 88.6%; in assay [11], 86.2%; in [12] it was 103%. Besides, the values for the Activity in assay [13] and in assay [14] were 101% and 95.2%, respectively.
As for `CC[C@H](Nc1ncnc2[nH]cnc12)c1nc2cccc(F)c2c(=O)n1-c1ccccc1`, the Activity in assay [1] amounted to 96.9%; in assay [2] it was 95.7%; in [3], 98%; in assay [4], 87.1%; in [5] it was 90.7%; in assay [6], 98.5%. The Activity in assay [7] was 94.8%; in assay [8], 96.5%; in assay [9], 91%; in [10] it was 83.8%; in assay [11], 87.2%; in [12], 99.4%. Moreover, the results for the Activity in assay [13] and in assay [14] were 105% and 98.1%, respectively.
Turning to `CC(C)Oc1ccc(-c2nn([C@@H](C)c3oc4ccc(F)cc4c(=O)c3-c3cccc(F)c3)c3ncnc(N)c23)cc1F` [UMBRALISIB], the Activity stood at 99.5% in assay [1]; 92% in assay [2]; 105% in [3]; 85.4% in assay [4]; 100% in assay [5]; 95.4% in assay [6]. Also, the Activity was found to be 89.3% in assay [7]; 97.9% in assay [8]; 91.5% in assay [9]; 83.1% in [10]; 87.8% in assay [11]; 97.4% in [12]. Moreover, the results for the Activity in [13] and in assay [14] were 89.5% and 101%, respectively.

These data come from ChEMBL document CHEMBL5715954, “Silencing c-Myc translation as a therapeutic strategy through targeting PI3Kδ and CK1ε in hematological malignancies” (Blood, 2017).
